pIC50: −log10 of the molar value.
Legend:
[1] = biological target: T1, cIAP1 BIR3 (Homo sapiens, UniProt Q13490); experiment: cIAP1 BIR3 binding assay (DELFIA), displacement of SMAC peptide; settings: GST-fusion BIR3 domain (aa 256 to 363) 10 nM, SMAC peptide 10 nM; activity of the (S)-isomers
T1 construct: covering amino acids 256 to 363; cIAP1 BIR3; made in house; host or cells: E. coli
Outline: (§1)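 Each BIR3 domain (10 nM) incubated with biotinylated N-terminal SMAC peptide (10 nM) and compound for 1 h at room temp in Tris/NaCl buffer with BSA, DTT and Triton X-100. Captured on streptavidin plates; bound BIR3 detected by Eu-labelled anti-GST time-resolved fluorescence, giving IC50 values.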

[2] = biological target: T2, XIAP BIR3 (Homo sapiens, UniProt P98170); experiment: XIAP BIR3 binding assay (DELFIA), displacement of SMAC peptide; settings: GST-fusion BIR3 domain (aa 241 to 356) 10 nM, SMAC peptide 10 nM; activity of the (S)-isomers
T2 construct: covering amino acids 241 to 356; XIAP BIR3; made in house; host or cells: E. coli
T2 sequence (P98170 241-356): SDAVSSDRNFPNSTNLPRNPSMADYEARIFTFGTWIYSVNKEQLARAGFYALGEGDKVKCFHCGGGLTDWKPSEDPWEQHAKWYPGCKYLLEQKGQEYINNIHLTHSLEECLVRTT
Outline: as §1

T1 sequence (Q13490 256-363): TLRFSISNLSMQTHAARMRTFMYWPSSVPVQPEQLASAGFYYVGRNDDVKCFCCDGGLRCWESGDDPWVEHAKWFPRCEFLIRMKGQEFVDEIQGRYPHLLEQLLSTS

pIC50 [1] | pIC50 [2] | Structure (SMILES)
7.66 | 6.99 | CNC(C)C(=O)Nc1ccc(-c2cnc(N3CCOCC3)nc2)c(C#Cc2ccccc2)n1 (stereo not shown) [Example 161, 2-(methylamino)-N-[5-(2-morpholin-4-ylpyrimidin-5-yl)-6-(2-phenylethynyl)pyridin-2-yl]-propanamide]
7.52 | 7.06 | CNC(C)C(=O)Nc1ccc(-c2cnn(C)c2C)c(C#Cc2ccccc2)n1 (stereo not shown) [Example 189, N-[5-(1,5-dimethylpyrazol-4-yl)-6-(2-phenylethynyl)pyridin-2-yl]-2-(methylamino)propanamide]
9.00 | 5.83 | CNC(C)C(=O)Nc1ccc(-c2c(C)nc(N3CCOCC3)nc2C)c(C#Cc2ccc3c(ccc(=O)n3C)c2)n1 (stereo not shown) [Example 35, N-[5-(4,6-dimethyl-2-morpholin-4-ylpyrimidin-5-yl)-6-[2-(1-methyl-2-oxoquinolin-6-yl)ethynyl]pyridin-2-yl]-2-(methylamino)propanamide]
7.44 | 6.87 | CNC(=O)c1ccc(-c2ccc(NC(=O)C(C)NC)nc2C#Cc2ccccc2)cn1 (stereo not shown) [Example 182, N-methyl-5-[6-[[2-(methyl-amino)propanoyl]amino]-2-(2-phenylethynyl)pyridin-3-yl]-pyridine-2-carboxamide]
6.88 | 6.24 | CCOc1ccc(-c2ccc(NC(=O)C(C)NC)nc2C#Cc2ccccc2)cn1 (stereo not shown) [Example 125, N-[5-(6-ethoxypyridin-3-yl)-6-(2-phenylethynyl)pyridin-2-yl]-2-(methylamino)propanamide]
7.04 | 6.54 | CNC(C)C(=O)Nc1ccc(-c2cccc(NC(C)=O)c2)c(C#Cc2ccccc2)n1 (stereo not shown) [Example 118, N-[5-(3-acetamidophenyl)-6-(2-phenylethynyl)pyridin-2-yl]-2-(methylamino)propanamide]
8.05 | 7.31 | CNC(C)C(=O)Nc1ccc(-c2ccc3ncn(C)c(=O)c3c2)c(C#Cc2ccccc2)n1 (stereo not shown) [Example 187, 2-(methylamino)-N-[5-(3-methyl-4-oxoquinazolin-6-yl)-6-(2-phenylethynyl)pyridin-2-yl]-propanamide]
7.80 | 6.82 | CNC(C)C(=O)Nc1ccc(-c2sc(C)nc2C)c(C#Cc2ccccc2)n1 (stereo not shown) [Example 186, N-[5-(2,4-dimethyl-1,3-thiazol-5-yl)-6-(2-phenylethynyl)pyridin-2-yl]-2-(methylamino)propanamide]

The remaining lines, values behind:

Structure (SMILES) | pIC50 [1] | pIC50 [2]
CNC(C)C(=O)Nc1ccc(-c2c(C)nc3ccccn23)c(C#Cc2ccc3c(c2)CC(=O)N3C)n1 (stereo not shown) [Example 66, 2-(methylamino)-N-[5-(2-methyliniidazo[1,2-a]pyridin-3-yl)-6-[2-(1-methyl-2-oxo-3H-indol-5-yl)ethynyl]pyridin-2-yl]-propanamide] | 9.00 | 6.60
CNC(C)C(=O)Nc1ccc(-c2c(-c3ccncc3)nc3cc(C)ccn23)c(C#Cc2ccc3nccn3c2)n1 (stereo not shown) [Example 95, N-[6-(2-imidazo[1,2-a]pyridin-6-ylethynyl)-5-(7-methyl-2-pyridin-4-ylimidazo[1,2-a]-pyridin-3-yl)pyridin-2-yl]-2-(methylamino)propanamide] | 9.00 | 7.01
CNC(C)C(=O)Nc1ccc(-c2c(C)nc3ccccn23)c(C#Cc2ccc3ncccc3c2)n1 (stereo not shown) [Example 28, 2-(methylamino)-N-[5-(2-methylimidazo[1,2-a]pyridin-3-yl)-6-(2-quinolin-6-ylethynyl)-pyridin-2-yl]propanamide] | 9.00 | 6.70
CNC(C)C(=O)Nc1ccc(-c2c(C)nc3ccccn23)c(C#Cc2ccc3cnccc3c2)n1 (stereo not shown) [Example 29, N-[6-(2-isoquinolin-6-yl-ethynyl)-5-(2-methyl-imidazo[1,2-a]pyridin-3-yl)-pyridin-2-yl]-2-(methylamino)-propanamide] | 9.00 | 6.84
[2H]C([2H])([2H])NC(C)C(=O)Nc1ccc(-c2c(C)noc2C)c(C#Cc2ccccc2)n1 (stereo not shown) [Example 168, N-[5-(3,5-dimethyl-1,2-oxazol-4-yl)-6-(2-phenylethynyl)pyridin-2-yl]-2-(trideuteriomethylamino)propanamide] | 8.52 | 6.82
CNC(C)C(=O)Nc1ccc(-c2c(C)nc3ccccn23)c(C#Cc2ccc3c(c2)COC3)n1 (stereo not shown) [Example 53, N-[6-[2-(1,3-dihydro-2-benzofuran-5-yl)ethynyl]-5-(2-methylimidazo[1,2-a]pyridin-3-yl)pyridin-2-yl]-2-(methyl-amino)propanamide] | 9.00 | 6.94
CC(N)C(=O)Nc1cccc(C#Cc2cccs2)n1 (stereo not shown) [Example 217, 2-amino-N-[6-(2-thiophen-2-ylethynyl)pyridin-2-yl]propanamide] | 6.69 | 6.05
CNC(C)C(=O)Nc1ccc(-c2c(-c3ccncc3)nc3cc(C)ccn23)c(C#Cc2ccc3c(ccc(=O)n3C)c2)n1 (stereo not shown) [Example 81, 2-(methylamino)-N-[6-[2-(1-methyl-2-oxoquinolin-6-yl)-ethynyl]-5-(7-methyl-2-pyridin-4-ylimidazo[1,2-a]pyridin-3-yl)-pyridin-2-yl]propanamide] | 9.00 | 6.60
CNC(C)C(=O)Nc1ccc(-c2c(C)nc3ccccn23)c(C#Cc2cc(C)nc3c(F)cccc23)n1 (stereo not shown) [Example 92, N-[6-[2-(8-fluoro-2-methylquinolin-4-yl)ethynyl]-5-(2-methylimidazo[1,2-a]pyridin-3-yl)pyridin-2-yl]-2-(methyl-amino)propanamide] | 9.00 | 6.76
